Experimental data from patent publication US12662469B2 (SIRONAX LTD, priority 2018, dated 2026).
Read-outs that look alike come from different tables or passages of the source.

Tested on: Cell Necrosis
Assay: Cell necrosis assay / cell viability assay (necrosis inhibitor activity)
Assay type: cell-based
Conditions: necrosis inhibitor activity, read-out: EC50
[1] = EC data for 14-191 extrapolated

Row | SMILES | EC50 (compounds outside 14-191) [nM] | EC50 [1] [nM]
1 | COc1cccc(O[C@@H]2CCN(C(=O)N3N=CC[C@H]3c3cc(F)cc(F)c3)C2)n1 [Compound 356, ((S)-5-(3,5-difluorophenyl)-4,5-dihydro-1H-pyrazol-1-yl)((R)-3-((6-methoxypyridin-2-yl)oxy)pyrrolidin-1-yl)methanone] | 1 to 1000 | –
2 | CNC(=O)c1ccc(OC2CN(C(=O)N3N=CC[C@H]3c3cc(F)cc(F)c3)C2)cc1 [Compound 218, (S)-4-((1-(5-(3,5-difluorophenyl)-4,5-dihydro-1H-pyrazole-1-carbonyl)azetidin-3-yl)oxy)-N-methylbenzamide] | 1 to 1000 | –
3 | O=C(N1CC(=Cc2ccc(F)cc2F)C1)N1N=CCC1c1cncc(F)c1 (stereo not shown) [Compound 308, (3-(2,4-difluorobenzylidene)azetidin-1-yl)(5-(5-fluoropyridin-3-yl)-4,5-dihydro-1H-pyrazol-1-yl)methanone] | 1 to 1000 | –
4 | O=C(N1CC(=Cc2ccc3oc(=O)[nH]c3c2)C1)N1N=CC[C@H]1c1cc(F)cc(F)c1 [Compound 311, (S)-5-((1(5-(3,5-difluorophenyl)-4,5-dihydro-1H-pyrazole-1-carbonyl)azetidin-3-ylidene)methyl)benzo[d]oxazol-2(3H)-one] | 1 to 1000 | –
5 | O=C(N1CC(=Cc2ccc3oncc3c2)C1)N1N=CC[C@H]1c1cc(F)cc(F)c1 [Compound 318, (S)-(3-(benzo[d]isoxazol-5-ylmethylene)azetidin-1-yl)(5-(3,5-difluorophenyl)-4,5-dihydro-1H-pyrazol-1-yl)methanone] | 1 to 1000 | –
6 | O=C(N1CC(=Cc2ccc(Cl)cc2F)C1)N1N=CC[C@H]1c1cc(F)cc(F)c1 [Compound 313] | 1 to 1000 | –
7 | C[C@@H]1CN(c2ncc(F)cn2)C[C@H](C)N1C(=O)N1N=CCC1c1ccccc1 (stereo partly drawn) [Compound 28, ((2R,6S)-4-(5-fluoropyrimidin-2-yl)-2,6-dimethylpiperazin-1-yl)(5-phenyl-4,5-dihydro-1H-pyrazol-1-yl)methanone] | – | 1 to 1000
8 | O=C(N1CC(Oc2ccc(-c3ncc[nH]3)cc2)C1)N1N=CCC1c1cc(F)cc(F)c1 (stereo not shown) [Compound 166] | – | 1 to 1000
9 | O=C(N1CC(Cc2ccc(F)cc2F)C1)N1N=CCC1c1cc(F)cc(F)c1 (stereo not shown) [Compound 54, (3-(2,4-difluorobenzyl)azetidin-1-yl)(5-(3,5-difluorophenyl)-4,5-dihydro-1H-pyrazol-1-yl)methanone] | – | 1 to 1000
10 | O=C(N1CC(Oc2cc(Br)ncn2)C1)N1N=CCC1c1ccccc1 (stereo not shown) [Compound 127, (3-((6-bromopyrimidin-4-yl)oxy)azetidin-1-yl)(5-phenyl-4,5-dihydro-1H-pyrazol-1-yl)methanone] | – | 1 to 1000
11 | O=C(N1CC(Oc2ccc3ccc(=O)[nH]c3c2F)C1)N1N=CC[C@H]1c1cc(F)cc(F)c1 [Compound 208, (S)-7-((1(5-(3,5-difluorophenyl)-4,5-dihydro-1H-pyrazole-1-carbonyl)azetidin-3-yl)oxy)-8-fluoroquinolin-2(1H)-one] | 1 to 1000 | –
12 | O=C(N[C@H]1CC[C@H](Oc2ccccc2)C1)N1N=CCC1c1ccccc1 (stereo partly drawn) [Compound 25, N-((1S,3S)-3-phenoxycyclopentyl)-5-phenyl-4,5-dihydro-1H-pyrazole-1-carboxamide] | – | 1000 to 10000
13 | N#Cc1cc(OC2CN(C(=O)N3N=CC[C@H]3c3cc(F)cc(F)c3)C2)c(F)cc1F [Compound 238, (S)-5-((1(5-(3,5-difluorophenyl)-4,5-dihydro-1H-pyrazole-1-carbonyl)azetidin-3-yl)oxy)-2,4-difluorobenzonitrile] | 1 to 1000 | –
14 | O=C(N1CC(=Cc2c(F)cc(F)cc2F)C1)N1N=CCC1c1cc(F)cc(F)c1 (stereo not shown) [Compound 304, (5-(3,5-difluorophenyl)-4,5-dihydro-1H-pyrazol-1-yl)(3-(2,4,6-trifluorobenzylidene)azetidin-1-yl)methanone] | 1 to 1000 | –
15 | N#Cc1cc(F)cc([C@@H]2CC=NN2C(=O)N2CC(Oc3cc4[nH]nc(F)c4cc3F)C2)c1 [Compound 377, (S)-3-(1-(3-((3,5-difluoro-1H-indazol-6-yl)oxy)azetidine-1-carbonyl)-4,5-dihydro-1H-pyrazol-5-yl)-5-fluorobenzonitrile] | 1 to 1000 | –
16 | N#Cc1cnc2ccc(O[C@@H]3CCN(C(=O)N4N=CC[C@H]4c4cc(F)cc(F)c4)C3)nn12 [Compound 240, 6-(((R)-1-((S)-5-(3,5-difluorophenyl)-4,5-dihydro-1H-pyrazole-1-carbonyl)pyrrolidin-3-yl)oxy)imidazo[1,2-b]pyridazine-3-carbonitrile] | 1 to 1000 | –
17 | NC(=O)c1ccnc(O[C@@H]2CCN(C(=O)N3N=CC[C@H]3c3cc(F)cc(F)c3)C2)n1 [Compound 332, 2-(((R)-1-((S)-5-(3,5-difluorophenyl)-4,5-dihydro-1H-pyrazole-1-carbonyl)pyrrolidin-3-yl)oxy)pyrimidine-4-carboxamide] | 1 to 1000 | –
18 | O=C(N1CC(=Cc2ccc3ccc(=O)[nH]c3c2)C1)N1N=CCC1c1cc(F)cc(F)c1 (stereo not shown) [Compound 190] | – | 1 to 1000
19 | C[C@H]1CN(c2ccc(F)cn2)CCN1C(=O)N1N=CCC1c1ccccc1 (stereo partly drawn) [Compound 115A, ((S)-4-(5-fluoropyridin-2-yl)-2-methylpiperazin-1-yl)(5-phenyl-4,5-dihydro-1H-pyrazol-1-yl)methanone] | – | 1 to 1000
20 | O=C(N1CC(Oc2ccccc2)C1)N1N=CCC1c1ccccc1 (stereo not shown) [Compound 59] | – | 1 to 1000
21 | CNC(=O)c1c(F)cc(OC2CN(C(=O)N3N=CCC3c3cc(F)cc(F)c3)C2)cc1F (stereo not shown) [Compound 160] | – | 1 to 1000
22 | NC(=O)CC[C@@H]1Oc2cc(F)c(OC3CN(C(=O)N4N=CC[C@H]4c4cc(F)cc(F)c4)C3)cc2NC1=O [Compound 245, 3-((S)-6-((1-((S)-5-(3,5-difluorophenyl)-4,5-dihydro-1H-pyrazole-1-carbonyl)azetidin-3-yl)oxy)-7-fluoro-3-oxo-3,4-dihydro-2H-benzo[b][1,4]oxazin-2-yl)propanamide] | 1 to 1000 | –
23 | CNc1cccc(OC2CN(C(=O)N3N=CCC3c3cc(F)cc(F)c3)C2)c1 (stereo not shown) [Compound 231, (5-(3,5-difluorophenyl)-4,5-dihydro-1H-pyrazol-1-yl)(3-(3-(methylamino)phenoxy)azetidin-1-yl)methanone] | 1 to 1000 | –
24 | N#Cc1cccc([C@@H]2CC=NN2C(=O)N2CC(=Cc3cc4c(cc3F)CC(=O)N4)C2)c1 [Compound 373, (S)-3-(1-(3-((5-fluoro-2-oxoindolin-6-yl)methylene)azetidine-1-carbonyl)-4,5-dihydro-1H-pyrazol-5-yl)benzonitrile] | 1 to 1000 | –
25 | O=C(N1CC(Oc2ccc(F)cc2Cl)C1)N1N=CCC1c1ccccc1 (stereo not shown) [Compound 67, (3-(2-chloro-4-fluorophenoxy)azetidin-1-yl)(5-phenyl-4,5-dihydro-1H-pyrazol-1-yl)methanone] | – | 1 to 1000
26 | O=C(N1CC(Oc2cccnc2)C1)N1N=CCC1c1ccccc1 (stereo not shown) [Compound 74, (5-phenyl-4,5-dihydro-1H-pyrazol-1-yl)(3-(pyridin-3-yloxy)azetidin-1-yl)methanone] | – | 1 to 1000
27 | Nc1cc(F)c(F)c(C=C2CN(C(=O)N3N=CC[C@H]3c3cc(F)cc(F)c3)C2)c1 [Compound 299, (S)-(3-(5-amino-2,3-difluorobenzylidene)azetidin-1-yl)(5-(3,5-difluorophenyl)-4,5-dihydro-1H-pyrazol-1-yl)methanone] | 1 to 1000 | –
28 | O=C(N1CCN(c2ccc(F)cn2)CC1)N1N=CCC1c1ccccc1 (stereo not shown) [Compound 85, (4-(5-fluoropyridin-2-yl)piperazin-1-yl)(5-phenyl-4,5-dihydro-1H-pyrazol-1-yl)methanone] | – | 1 to 1000
